Values joined by “and” are separate entries in the source; they are usually repeats but may differ in a detail not shown here. Equal entries are not always repeated. Structures can show the parent of a compound that is named as a salt. Where two headings read alike, the source gives them in different places.
Legend:
[1] = molecular target: T1, wild type human RORγt ligand binding domain (RORyt LBD) (Homo sapiens, UniProt P51449); experiment: RORγt ThermoFluor assay (thermal shift, binding affinity KD)
T1 construct: His-tag (N); TurboTEV protease cleavage site (ENLYFQG) (N); made in house; host or cells: E. coli (pHIS1, modified pET vector)
T1 sequence (P51449 258-518): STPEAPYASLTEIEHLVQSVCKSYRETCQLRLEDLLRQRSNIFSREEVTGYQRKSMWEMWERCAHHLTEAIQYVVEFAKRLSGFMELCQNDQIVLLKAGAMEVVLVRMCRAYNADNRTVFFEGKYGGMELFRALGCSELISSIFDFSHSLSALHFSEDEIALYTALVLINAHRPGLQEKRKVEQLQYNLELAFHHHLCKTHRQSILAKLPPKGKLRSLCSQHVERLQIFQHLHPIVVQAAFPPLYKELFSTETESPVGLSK

[2] = molecular target: T2, wild type human RORγt LBD (Homo sapiens, UniProt P51449); experiment: RORγt (LBD) Reporter Assay (GAL4-luciferase, HEK293T cells); type: cell-based; settings: for inhibition at 6 µM: HEK-293T, read-out: RORγt (LBD) Reporter Assay, % inhibition @ 6 µM, 6 µM compound concentration; for RORγt (LBD) Reporter Assay, % inhibition @ 6 µM: 6 µM compound concentration
T2 construct: expressed in transfected cells; host or cells: HEK293T
T2 sequence (P51449 258-518): T1 sequence (P51449 258-518)

[3] = HEK293T cells, value after the comma with ∼, > or < could not be included in the average

Row | Structure (SMILES) | Kd [1] | IC50 ([2]; HEK293T cells) | inhibition at 6 µM ([2]; HEK293T cells) | RORγt (LBD) Reporter Assay, % inhibition @ 6 µM ([2]; 6 µM) | IC50 [2, 3] | inhibition at 6 µM [2] | RORγt (LBD) Reporter Assay, % inhibition @ 6 µM ([2]; HEK293T cells, 6 µM) | RORγt (LBD) Reporter Assay, % inhibition @ 6 µM [2]
1 | Cn1cncc1C(O)(c1ccc(Cl)cc1)c1ccc2nc(N3CCC3)c(Cc3ccc(-n4cccn4)cc3)c(Cl)c2c1 (stereo not drawn) [Example 138a, {2-Azetidin-1-yl-4-chloro-3-[4-(1H-pyrazol-1-yl)benzyl]quinolin-6-yl}(4-chlorophenyl)(1-methyl-1H-imidazol-5-yl)methanol] | 130 nM | 130 nM | 98% | – | – | – | – | –
2 | CC(=O)N1CCC(C(O)(c2ccc(C(F)(F)F)nc2)c2cc(C)c3nc(C#N)c(Cc4ccc(-n5cccn5)cc4)c(C#N)c3c2)CC1 (single isomer, unassigned) [Example 79b, 3-(4-(1H-Pyrazol-1-yl)benzyl)-6-((1-acetylpiperidin-4-yl)(hydroxy)(6(trifluoromethyl)pyridin-3-yl)methyl)-8-methylquinoline-2,4-dicarbonitrile] | 580 nM | – | – | – | 760 nM | 92% | – | –
3 | CC(=O)N1CCC(C(O)(c2ccccc2)c2ccc3nc(Cl)c(Cc4cncnc4)c(OC(F)F)c3c2)CC1 (single isomer, unassigned) [Example 73b, 1-(4-((2-Chloro-4-(difluoromethoxy)-3-(pyrimidin-5-ylmethyl)quinolin-6-yl)(hydroxy)(phenyl)methyl)piperidin-1-yl)ethanone] | 44 nM | – | – | – | 700 nM | 35% | – | –
4 | CCCCc1nc2ccc(C(O)(c3cccnc3)c3cccc(F)c3)cc2c(Cl)c1Cc1ccc(-n2cccn2)cc1 (stereo not drawn) [Example 60, (3-(4-(1H-Pyrazol-1-yl)benzyl)-2-butyl-4-chloroquinolin-6-yl)(3-fluorophenyl)(pyridin-3-yl)methanol•TFA] | 3100 nM | – | – | – | 620 nM and ~2000 nM | 83% | – | –
5 | COc1nc2ccc(C(O)(c3ccc(C)nc3C)c3cnnn3C)cc2c(Cl)c1Cc1ccc(N(C)C)cc1 (stereo not drawn) [Example 24a, (4-Chloro-3-(4-(dimethylamino)benzyl)-2-methoxyquinolin-6-yl)(2,6-dimethylpyridin-3-yl)(1-methyl-1H-1,2,3-triazol-5-yl)methanol] | 1.5 nM | – | – | – | 4.6 nM | 100% | – | –
6 | COc1nc2ccc(C(O)(c3ccc(C)nc3C)C3CN(C(C)=O)C3)cc2c(Cl)c1Cc1ccc(C(F)(F)F)cc1 (single isomer, unassigned) [Example 87c, 1-(3-((4-Chloro-2-methoxy-3-(4-(trifluoromethyl)benzyl)quinolin-6-yl)(2,6-dimethylpyridin-3-yl)(hydroxy)methyl)azetidin-1-yl)ethanone] | 3 nM | – | – | 97% | 15 nM | – | – | –
7 | Cc1ccc(C(O)(c2ccc3nc(Cl)c(Cc4ccc(C(F)(F)F)cc4)c(NC4CC4)c3c2)c2cnnn2C)c(C)n1 (single isomer, unassigned) [Example 144b, {2-Chloro-4-(cyclopropylamino)-3-[4-(trifluoromethyl)benzyl]quinolin-6-yl}(2,6-dimethylpyridin-3-yl)(1-methyl-1H-1,2,3-triazol-5-yl)methanol] | 2300 nM | ~3700 nM | – | – | – | – | 69% | –
8 | Cn1cncc1C(O)(c1ccc(Cl)cc1)c1ccc2nc(N3CCC3)c(Cc3ccc(-n4cccn4)cc3)c(Cl)c2c1 (single isomer, unassigned) [Example 138c, {2-Azetidin-1-yl-4-chloro-3-[4-(1H-pyrazol-1-yl)benzyl]quinolin-6-yl}(4-chlorophenyl)(1-methyl-1H-imidazol-5-yl)methanol] | 32 nM | 75 nM | – | – | – | – | 96% | –
9 | COc1nc2ccc(C(O)(c3ccc(C#N)cc3)c3cncn3C)cc2c(Cl)c1Cc1ccc(-n2cncn2)cc1 (stereo not drawn) [Example 14a, 4-((3-(4-(1H-1,2,4-Triazol-1-yl)benzyl)4-chloro-2-methoxyquinolin-6-yl)(hydroxy)(1-methyl-1H-imidazol-5-yl)methyl)benzonitrile] | 17 nM | – | – | – | 42 nM | 105% | – | –
10 | Cc1ccc(C(O)(c2ccc3nc(Cl)c(Cc4ccc(C(F)(F)F)cc4)c(NC4CC4)c3c2)c2cnnn2C)c(C)n1 (stereo not drawn) [Example 144a, {2-Chloro-4-(cyclopropylamino)-3-[4-(trifluoromethyl)benzyl]quinolin-6-yl}(2,6-dimethylpyridin-3-yl)(1-methyl-1H-1,2,3-triazol-5-yl)methanol] | 12 nM | 74 nM | 99% | – | – | – | – | –
11 | COc1nc2ccc(C(O)(c3ccc(Cl)cc3)c3cccnc3)cc2c(Cl)c1Cc1ccc(-n2cccn2)cc1 (stereo not drawn) [Example 62, (3-(4-(1H-pyrazol-1-yl)benzyl)4-chloro-2-methoxyquinolin-6-yl)(4-chlorophenyl)(pyridin-3-yl)methanol] | 41 nM | – | – | – | 120 nM | 107% | – | –

Next, values leading:

Row | Kd [1] | IC50 ([2]; HEK293T cells) | inhibition at 6 µM ([2]; HEK293T cells) | RORγt (LBD) Reporter Assay, % inhibition @ 6 µM ([2]; 6 µM) | IC50 [2, 3] | inhibition at 6 µM [2] | RORγt (LBD) Reporter Assay, % inhibition @ 6 µM ([2]; HEK293T cells, 6 µM) | RORγt (LBD) Reporter Assay, % inhibition @ 6 µM [2] | Structure (SMILES)
12 | 46 nM | – | – | 83% | 960 nM and ~1000 nM | – | – | – | Cn1cncc1C(O)(c1ccc(C(F)(F)F)nc1)c1ccc2nc(C(F)(F)F)c(Cc3ccccc3)c(C#N)c2c1 (single isomer, unassigned) [Example 108c, 3-Benzyl-6-(hydroxy(1-methyl-1H-imidazol-5-yl)(6-(trifluoromethyl)pyridin-3-yl)methyl)-2-(trifluoromethyl)quinoline-4-carbonitrile]
13 | 84 nM | 210 nM | 103% | – | – | – | – | – | Cn1cncc1C(O)(c1ccc(C(F)(F)F)nc1)c1ccc2nc(N3CCOCC3)c(Cc3ccc(-n4cccn4)cc3)c(Cl)c2c1 (single isomer, unassigned) [Example 146b, {4-Chloro-2-morpholin-4-yl-3-[4-(1H-pyrazol-1-yl)benzyl]quinolin-6-yl}(1-methyl-1H-imidazol-5-yl)[6-(trifluoromethyl)pyridin-3-yl]methanol]
14 | 4.5 nM | – | – | 100% | 93 nM | – | – | – | COc1nc2ccc(C(O)(c3ccc(Cl)cc3)c3cncn3C)cc2c(C#N)c1Cc1ccc(C(F)(F)F)cc1 (single isomer, unassigned) [Example 55c, 6-((4-Chlorophenyl)(hydroxy)(1-methyl-1H-imidazol-5-yl)methyl)-2-methoxy-3-(4-(trifluoromethyl)benzyl)quinoline-4-carbonitrile]
15 | 5.2 nM | 52 nM | – | – | – | – | 96% | – | Cn1cncc1C(O)(c1ccc(C(F)(F)F)nc1)c1ccc2nc(N3CC(F)C3)c(Cc3ccc(-n4cccn4)cc3)c(Cl)c2c1 (single isomer, unassigned) [Example 147c, {4-Chloro-2-(3-fluoroazetidin-1-yl)-3-[4-(1H-pyrazol-1-yl)benzyl]quinolin-6-yl}(1-methyl-1H-imidazol-5-yl)[6-(trifluoromethyl)pyridin-3-yl]methanol]
16 | 1200 nM | – | – | – | 1600 nM | 92% | – | – | COc1nc2ccc(C(O)(c3ccc(C)nc3C)c3cnnn3C)cc2c(C#N)c1Cc1ccc(C(F)(F)F)nc1 (single isomer, unassigned) [Example 41b, 6-((2,6-Dimethylpyridin-3-yl)(hydroxy)(1-methyl-1H-1,2,3-triazol-5-yl)methyl)-2-methoxy-3-((6-(trifluoromethyl)pyridin-3-yl)methyl)quinoline-4-carbonitrile]
17 | 12000 nM | 1200 nM | – | – | – | – | 82% | – | COC1CN(c2nc3ccc(C(O)(c4ccc(C(F)(F)F)nc4)c4cncn4C)cc3c(Cl)c2Cc2ccc(-n3cccn3)cc2)C1 (single isomer, unassigned) [Example 133c, {4-Chloro-2-(3-methoxyazetidin-1-yl)-3-[4-(1H-pyrazol-1-yl)benzyl]quinolin-6-yl}(1-methyl-1H-imidazol-5-yl)[6-(trifluoromethyl)pyridin-3-yl]methanol]
18 | 1.2 nM | – | – | 55% | 1100 nM | – | – | – | Cn1cncc1C(O)(c1ccc(C(F)(F)F)nc1)c1ccc2nc(C(F)(F)F)c(Cc3ccccc3)c(C#N)c2c1 (single isomer, unassigned) [Example 108b, 3-Benzyl-6-(hydroxy(1-methyl-1H-imidazol-5-yl)(6-(trifluoromethyl)pyridin-3-yl)methyl)-2-(trifluoromethyl)quinoline-4-carbonitrile]
19 | 9 nM | – | – | – | 19 nM | – | – | 99% | COc1nc2ccc(C(O)(c3cnnn3C)c3cnc(C)n3C)cc2c(C#N)c1Cc1ccc(C(F)(F)F)nc1 (single isomer, unassigned) [Example 44c, 6-((1,2-Dimethyl-1H-imidazol-5-yl)(hydroxy)(1-methyl-1H-1,2,3-triazol-5-yl)methyl)-2-methoxy-3-((6-(trifluoromethyl)pyridin-3-yl)methyl)quinoline-4-carbonitrile]
20 | 61 nM | – | – | – | 210 nM | 98% | – | – | COc1nc2ccc(C(N)(c3ccc(C(F)(F)F)nc3)c3cncn3C)cc2c(Cl)c1Cc1cc2ccccc2s1 (racemic) [Example 71a, (3-(Benzo[b]thiophen-2-ylmethyl)4-chloro-2-methoxyquinolin-6-yl)(1-methyl-1H-imidazol-5-yl)(6-(trifluoromethyl)pyridin-3-yl)methanamine]

From EP3057951B1, “METHYLENE LINKED QUINOLINYL MODULATORS OF ROR-GAMMA-T” (Janssen Pharmaceutica NV, priority 2013, dated 2015)
